pIC50: −log10 of the molar value. Read-outs that look alike come from different tables or passages of the source.
Experiments:
[1] = system: polymorphonuclear leucocytes (PMNL); test: Test 1: Release of proteolytic activity from human PMNL; format: cell-based; conditions: Homo sapiens, PMNL, read-out: Test 1 residual activity (release of proteolytic activity), percent of control
Outline: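 Human peripheral-blood PMNL (5·10^6 cells/ml in PBS with 7.5 mM glucose) preincubated 20 min at 37° C. with compound, then primed with cytochalasin B (5 μg/ml) and TNF (30 ng/ml), and stimulated with fMLP (10 nmol/l) for 60 min. Released protease in supernatant read with methoxysuccinyl-nitroanilide substrate at 405 nm over 0-60 min, pH 7.5.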

[2] = system: leukotriene B4 synthesis in white blood cells; test: Test 3: LTB4 formation by white blood cells; format: cell-based; conditions: Homo sapiens, read-out: Test 3 residual activity (LTB4 formation), percent of control
Procedure: TEST 3. LTB4 formation by white blood cells
Isolation of white blood cells:
40 ml of human blood were mixed with 8 ml of 6% dextran solution (dextran, mw: 480,000 in PM16). After one hour at room temperature, the supernatant,which was composed of white blood cells, was removed, diluted with an equal volume of PM16, and centrifuged for 15 minutes at 300×g (1600 rpm). The sediment was next resuspended in approximately 5-6 ml of PM16 and, once the cell count had been determined in a Coulter Counter, adjusted to 10^7 cells/ml.
The test mixture comprised 0.24 ml of cell suspension, 0.03 ml of 20 mM CaCl2 /5 mM MgCl2 and 5 μl of test substance. Following 15 minutes of preincubation at 37° C., the reaction was started with 0.03 ml of A23187/glutathione (100 μg of A23187/ml; 15.4 μg of glutathione/ml). The incubation was terminated after 5 minutes at 37° C. by immediate cooling of the samples down to 0° C. After centrifuging for 2 minutes in an Eppendorff Centrifuge (0° C.), the supernatant was removed and examined chromatographically.
High pressure liquid chromatography (HPLC): the HPLC equipment comprises a Kratos pump (Spectro-flow 400), a cooled automatic BT 7041 sample injector (Biotronik) having a 75 μl sample loop, a Nucleosil C18 column (100*3 mm, 5 μm particles of Chrompack), a UV detector (Kratos) Spectroflow 757 (wavelength: 280 nm, measurement range: 0.1 AUFS, time constant: 0.5 s) and a Spectra Physics integrator (SP 4270). The eluent (725 ml of methanol, 275 ml of water and 0.1 ml of acetic acid) was supplied at a flow rate of 0.7 ml/minute and at a pressure of about 100 bar.
When doing this, the measurement range which has been set can be examined and altered if necessary. It is also vital to measure the test substances at the particular test concentration (e.g.: 10^-5 M) in PM16 before the cell incubation, since the test substances might conceal the LTB4 peak. If this is the case, a lower concentration must be selected.
(§1) The values in the table show the concentration of the test substance which was employed in μM and, besides this, the residual activity measured in percent based on the control, which was set to be 100%. The interleukin is additionally indicated in test 4.

[3] = system: IL-1α release from mononuclear cells; test: Test 4: cytokine release from LPS-stimulated mononuclear cells, IL-1α; format: cell-based; conditions: Homo sapiens, read-out: Test 4 residual activity (IL-1α release), percent of control
Procedure: (§2) Test 4. Stimulation of the cytokine release
(§3) Isolation of mononuclear cells from human blood
(§4) 10 ml of human blood, stabilized with 1 ml of 3.8% sodium citrate solution, were diluted with 10 ml of PM16 (Serva, Heidelberg) and underlaid with 15 ml of Lymphoprep (Dr. Molter GmbH, Heidelberg). The samples were centrifuged, at room temperature for 40 minutes, at 400×g (1600 rpm, Minifuge 2, Heraeus, Osterode). The mononuclear cells are visible as a white ring at the Lymphoprep/plasma interface. This ring was carefully removed with a syringe, diluted with an equal volume of PM16, and centrifuged for 10 minutes at 400×g. The sediment was washed with approximately 10 ml of RPMI1640 (+300 mg/l L-glutamine, Gibco, Eggenstein) (Wallis, 1986). After the cells had been resuspended in approximately 1 ml of RPMI1640 (+300 mg/l L-glutamine+25 mM HEPES+100 μg/ml streptomycin+100 μg/ml penicillin), the cell density was determined using a Coulter Counter JT (Coulter Diagnostics) and adjusted to 5*10^6 /ml. Typically, the cells are composed of 90% lymphocytes and 10% monocytes.
230 μl of mononuclear cells were incubated, at 37° C.; 5% CO2 for 20-22 hours (5 hours in the case of IL-6), with 10 μl of test substance ([…]) and 10 μl of lipopolysaccharide (LPS; 500 μg dissolved in 1 ml of DMSO and diluted 1/10 with water prior to beginning the test; from Salmonella abortus equi, Sigma, Deisenhofen). The samples were cooled down to 0° C. in an ice bath and centrifuged in a Sigma centrifuge (2 minutes; 2000 rpm). Aliquots of the supernatant are measured with an ELISA (Biermann, Bad Nauheim). The abbreviation IL stands for interleukin and TNF for tumor necrosis factor alpha.
as §1

[4] = system: TNFα release from mononuclear cells; test: Test 4: cytokine release from LPS-stimulated mononuclear cells, TNFα; format: cell-based; conditions: Homo sapiens, read-out: Test 4 residual activity (TNFα release), percent of control
Procedure: as §2, §3, §4
(§5) 230 μl of mononuclear cells were incubated, at 37° C.; 5% CO2 for 20-22 hours (5 hours in the case of IL-6), with 10 μl of test substance (10 μM in DMSO/water, 1/10) and 10 μl of lipopolysaccharide (LPS; 500 μg dissolved in 1 ml of DMSO and diluted 1/10 with water prior to beginning the test; from Salmonella abortus equi, Sigma, Deisenhofen). The samples were cooled down to 0° C. in an ice bath and centrifuged in a Sigma centrifuge (2 minutes; 2000 rpm). Aliquots of the supernatant are measured with an ELISA (Biermann, Bad Nauheim). The abbreviation IL stands for interleukin and TNF for tumor necrosis factor alpha.
as §1

[5] = system: cyclooxygenase-dependent thrombocyte aggregation; test: Test 5: Cyclooxygenase-dependent thrombocyte aggregation; format: cell-based, human; conditions: Homo sapiens, arachidonic acid as inducer, read-out: Test 5 residual activity (cyclooxygenase-dependent thrombocyte aggregation), percent of control
Outline: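 Citrated human platelet-rich plasma was preincubated 10 min at 37 °C with test substance diluted 1:30 in 50 mM Tris-HCl pH 8.0, 90 mM NaCl. Aggregation was triggered with arachidonic acid (5 mg/ml, 20 μl) under 800 rpm stirring in an aggregometer. Values are tested concentration (μM) and residual activity as % of control.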

[6] = system: IL-1β release from mononuclear cells; test: Test 4: cytokine release from LPS-stimulated mononuclear cells, IL-1β; format: cell-based; conditions: Homo sapiens, read-out: Test 4 residual activity (IL-1β release), percent of control
Procedure: as §2, §3, §4, §5, §1

adjuvant/arthritis model = test: Test 6: antiarthritic effect in the adjuvant/arthritis model; format: in vivo, rat (Wistar-Lewis); conditions: Rattus norvegicus, po, 408 h, 50 mg/kg orally, daily for 17 days; rat; read-out: Test 6 Paw volume (% inhibition)
[7] = system: PAF-induced asthma attack; test: Test 7: antiasthmatic effect, PAF-induced asthma attack; format: in vivo; conditions: Cavia porcellus; i.d., 15 minutes before PAF; guinea pig
Procedure: Test 7: Testing for antiasthmatic effect
Anesthetized guinea pigs, which were cannulated in the jugular vein to allow injection of the PAF, were used for testing for antiasthmatic effect. The test preparations were also administered intravenously (i.v.), 5 min before PAF administration, into the blood stream through the same venous cannula, or else administered intraduodenally (i.d.), 15 minutes before the PAF, through an opening in the duodenum which had been installed and cannulated surgically. The bronchial width was recorded in an overflow pneumonogram before and after administering the preparation. Evaluation: ED50 in mg/kg i.d. as compared with the PAF-induced asthma attack.

[8] = system: tumor cell line 20-10-5S (hybridoma cell line); test: Test 8: Inhibition of tumor cell proliferation; format: cell-based; conditions: 48 h + 16 h tritiated thymidine incorporation; 20-10-5S cells
Procedure: The tumor cell line 20-10-5S (hybridoma cell line, supplied by ATCC (American Type Culture Collection)), which produces an antibody against mouse T cells) was used for determining the antiproliferative property of test substances. The cells were cultured, at 37° C. and 5% C2, under serum-free conditions in CG medium (cell-growth medium=Iscove-ATL (+albumin+transferrin+lipids); from Vitromex, Vilshofen). Only cells which were in the logarithmic phase of growth were used for the test mixture. The test substances were pipetted in various concentrations (from 1 to 50 μM), together with 4×10^3 20-10-5S cells, into round-bottomedmicrotiter plates (total volume with medium, 200 μl). After an incubation time of 48 h (37° C. and 5% CO2), 25 μl of tritiated thymidine (=0.25 μCi/test mixture, specific activity, 23 Ci/mM) were added to the plates. During the subsequent 16 h, the radioactively labeled thymidine was incorporated into the DNA of the growing cells. The samples were filtered off with suction on glass fiber filters and the incorporated radioactivity was measured using a β counter (Beta Plate System 1205 from Wallac).

[9] = system: IL-1 release from mononuclear cells; test: Test 4: cytokine release from LPS-stimulated mononuclear cells, IL-1; format: cell-based; conditions: Homo sapiens
Procedure: as §2, §3, §4, §5, §1

[10] = IL-1, read-out: Test 4 residual activity (IL-1 release), percent of control

SMILES | activity at 100 µM [1] [%] | activity at 10 µM [2] [%] | activity at 1 µM [3] [%] | activity at 10 µM [4] [%] | activity at 100 µM [5] [%] | pIC50 [8] | other results
CC(C)(C)c1cc(C2CC(c3nccs3)=NO2)cc(C(C)(C)C)c1O (stereo not shown) [Example 61, 3-(2-Thiazolyl)-5-(4-hydroxy-3,5-di-tert-butylphenyl)-2-isoxazoline] | 80 | 3 | 94 | 68 | 94 | – | –
CC(C)(C)c1cc(-c2cc(CCO)on2)cc(C(C)(C)C)c1O [Example 25] | – | 29 | – | 82 | – | > 5.30 | activity at 1 µM [2]: 85%; activity at 10 µM [3]: 62%; activity at 10 µM ([6]; 10 μM): 93%; activity at 10 µM [5]: 86%; inhibition in vivo at 50 mg/kg (adjuvant/arthritis model): 44%; ED50 [7]: 3 to 10 mg/kg
CC(C)(C)c1cc(-c2cc(/C=C/C(=O)O)on2)cc(C(C)(C)C)c1O [Example 47, 3-(4-Hydroxy-3,5-di-tert-butylphenyl)isoxazol-5-ylacrylic acid] | 17 | – | 89 | 64 | – | 5.00 to 5.30 | activity at 1 µM ([1]; 1 μM): 85%; activity at 10 µM [1]: 38%; activity at 10 µM [3]: 72%; ED50 [7]: 10 to 50 mg/kg
CC(C)(C)c1cc(-c2cc(CCC(=O)Nc3nnn[nH]3)on2)cc(C(C)(C)C)c1O [Example 46, 3-(3-(4-Hydroxy-3,5-di-tert-butylphenyl)isoxazol-5-yl)-N-(1H-tetrazol-5-yl)propionamide] | – | – | 77 | 79 | 90 | – | activity at 1 µM [6]: 85%
CC(C)(OCc1cc(-c2cc(C(C)(C)C)c(O)c(C(C)(C)C)c2)no1)C(=O)Nc1nnn[nH]1 [Example 38, 2-(3-(4-Hydroxy-3,5-di-tert-butylphenyl)isoxazol-5-ylmethoxy)-N-(1H-tetrazol-5-yl)isobutyramide] | – | – | 89 | – | 90 | – | activity at 1 µM [6]: 85%
CC(C)(C)c1cc(C2CC(CCC(=O)Nc3nnn[nH]3)=NO2)cc(C(C)(C)C)c1O (stereo not shown) [Example 64, 5-(4-Hydroxy-3,5-di-tert-butyl)phenyl-2-isoxazoline-3-propionic acid-N-(1H-tetrazol-5-yl)amide] | 72 | – | – | – | 97 | – | activity at 10 µM [1]: 96%; activity at 10 µM ([9]; IL-1 (second entry), read-out: Test 4 residual activity (IL-1 release, second IL-1 entry of Ex. 64), percent of control): 82%; activity at 1 µM ([9]; IL-1, 1 μM, read-out: Test 4 residual activity (IL-1 release), percent of control): 85%; activity at 10 µM [9, 10]: 68%
CC(C)(C)c1cc(C2=NOC(c3ccncc3)C2)cc(C(C)(C)C)c1O (stereo not shown) [Example 10] | – | 20 | – | 78 | 98 | – | activity at 1 µM [2]: 89%
CC(C)(C)c1cc(-c2cc(CO)on2)cc(C(C)(C)C)c1O [Example 24] | – | – | – | – | – | > 5.30 | activity at 10 µM [9, 10]: 86%; activity at 10 µM [5]: 94%; inhibition in vivo at 50 mg/kg (adjuvant/arthritis model): 43%

From patent US5814627A, “3, 5-disubstituted and 3, 4, 5-trisubstituted 2-isoxazolines and isoxazoles, process for their preparation and their use as pharmaceuticals” (Hoechst Aktienegesellschaft, priority 1994, dated 1998)
